Reference: PubChem BioAssay (NCI)
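Test compounds were applied to cells in 96-well plates for 48 hours at 5 doses. Here, GI50 denotes the concentration required for 50% inhibition of growth. TGI: concentration producing complete growth inhibition.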

How the values were obtained:
Assay in all cases: inhibition of tumour cell growth, NCI panel, 48 h
[1] = test system: 786-0 renal
[2] = test system: A498 renal
[3] = test system: A549 NSCLC
[4] = test system: ACHN renal
[5] = test system: BT-549 breast
[6] = test system: CAKI-1 renal
[7] = test system: CCRF-CEM leukemia
[8] = test system: COLO 205 colon
[9] = test system: DU-145 prostate
[10] = test system: EKVX NSCLC
[11] = test system: HCC-2998 colon
[12] = test system: HCT-116 colon
[13] = test system: HCT-15 colon
[14] = test system: HL-60(TB) leukemia
[15] = test system: HOP-62 NSCLC
[16] = test system: HOP-92 NSCLC
[17] = test system: HS 578T breast
[18] = test system: HT29 colon
[19] = test system: IGROV1 ovarian
[20] = test system: K-562 leukemia
[21] = test system: KM12 colon
[22] = test system: LOX IMVI melanoma
[23] = test system: M14 melanoma
[24] = test system: MALME-3M melanoma
[25] = test system: MCF7 breast
[26] = test system: MDA-MB-231 breast
[27] = test system: MOLT-4 leukemia
[28] = test system: NCI-H226 lung
[29] = test system: NCI-H23 lung
[30] = test system: NCI-H460 lung
[31] = test system: NCI/ADR-RES ovarian
[32] = test system: OVCAR-3 ovarian
[33] = test system: OVCAR-4 ovarian
[34] = test system: OVCAR-5 ovarian
[35] = test system: OVCAR-8 ovarian
[36] = test system: PC-3 prostate
[37] = test system: RPMI-8226 leukemia
[38] = test system: SF-268 CNS
[39] = test system: SF-539 CNS
[40] = test system: SK-MEL-2 melanoma
[41] = test system: SK-MEL-28 melanoma
[42] = test system: SK-MEL-5 melanoma
[43] = test system: SK-OV-3 ovarian
[44] = test system: SN12C renal
[45] = test system: SNB-19 CNS
[46] = test system: SNB-75 CNS
[47] = test system: SR leukemia
[48] = test system: SW-620 colon
[49] = test system: TK-10 renal
[50] = test system: U251 CNS
[51] = test system: UACC-257 melanoma
[52] = test system: UACC-62 melanoma
[53] = test system: UO-31 renal
[54] = test system: MDA-MB-435
[55] = test system: NCI-H522 lung
[56] = test system: RXF 393 renal

SMILES: CC(=Nc1ccccc1)C1=C(O)C(Cc2ccc(O)cc2)NC1=O (stereo not given)
- GI50 [1]: 0.505 µM
- TGI [1]: > 100 µM
- GI50 [2]: 0.255 µM
- GI50 [3]: 0.126 µM
- TGI [3]: > 100 µM
- GI50 [4]: 0.0738 µM
- TGI [4]: > 100 µM
- GI50 [5]: 0.0577 µM
- TGI [5]: 1.12 µM
- GI50 [6]: 0.0635 µM
- TGI [6]: > 100 µM
- GI50 [7]: 0.131 µM
- TGI [7]: > 100 µM
- GI50 [8]: 0.076 µM
- TGI [8]: 0.28 µM
- GI50 [9]: 0.178 µM
- TGI [9]: 0.994 µM
- GI50 [10]: 0.16 µM
- TGI [10]: > 100 µM
- GI50 [11]: 0.124 µM
- TGI [11]: 0.641 µM
- GI50 [12]: 0.0503 µM
- TGI [12]: 1.93 µM
- GI50 [13]: 0.0585 µM
- TGI [13]: > 46.8 µM
- GI50 [14]: 0.0376 µM
- TGI [14]: 0.176 µM
- GI50 [15]: 0.106 µM
- TGI [15]: 2.46 µM
- GI50 [16]: 0.082 µM
- TGI [16]: > 100 µM
- GI50 [17]: 0.0771 µM
- GI50 [18]: 0.0472 µM
- TGI [18]: 0.452 µM
- GI50 [19]: 0.232 µM
- GI50 [20]: 0.044 µM
- TGI [20]: > 50.7 µM
- GI50 [21]: 0.0472 µM
- TGI [21]: 1.31 µM
- GI50 [22]: 0.152 µM
- TGI [22]: > 23.1 µM
- GI50 [23]: 0.0469 µM
- TGI [23]: 0.269 µM
- GI50 [24]: 0.0477 µM
- TGI [24]: > 100 µM
- GI50 [25]: 0.0391 µM
- TGI [25]: > 100 µM
- GI50 [26]: 1.06 µM
- TGI [26]: > 100 µM
- GI50 [27]: 0.371 µM
- TGI [27]: > 100 µM
- GI50 [28]: 0.968 µM
- TGI [28]: > 100 µM
- GI50 [29]: 0.139 µM
- TGI [29]: > 100 µM
- GI50 [30]: 0.0794 µM
- TGI [30]: 1.08 µM
- GI50 [31]: 0.0572 µM
- TGI [31]: 0.793 µM
- GI50 [32]: 0.0258 µM
- TGI [32]: 0.072 µM
- GI50 [33]: 0.385 µM
- TGI [33]: > 100 µM
- GI50 [34]: 0.548 µM
- TGI [34]: > 100 µM
- GI50 [35]: 0.255 µM
- TGI [35]: > 100 µM
- GI50 [36]: 0.0538 µM
- TGI [36]: > 100 µM
- GI50 [37]: 0.169 µM
- TGI [37]: > 100 µM
- GI50 [38]: 0.117 µM
- TGI [38]: > 80.2 µM
- GI50 [39]: 0.129 µM
- TGI [39]: 0.703 µM
- GI50 [40]: 0.206 µM
- TGI [40]: > 100 µM
- GI50 [41]: 0.0594 µM
- TGI [41]: > 100 µM
- GI50 [42]: 0.0512 µM
- TGI [42]: 2.37 µM
- GI50 [43]: 0.162 µM
- TGI [43]: > 50 µM
- GI50 [44]: 0.991 µM
- TGI [44]: > 100 µM
- GI50 [45]: 0.23 µM
- TGI [45]: > 100 µM
- GI50 [46]: 0.07 µM
- TGI [46]: 0.566 µM
- GI50 [47]: 0.0283 µM
- GI50 [48]: 0.0485 µM
- TGI [48]: > 100 µM
- GI50 [49]: 0.252 µM
- TGI [49]: > 100 µM
- GI50 [50]: 0.0609 µM
- GI50 [51]: > 100 µM
- TGI [51]: > 100 µM
- GI50 [52]: 0.058 µM
- TGI [52]: > 100 µM
- GI50 [53]: 0.321 µM
- TGI [53]: > 100 µM

SMILES: Cc1c2c(cc[n+]1Cc1ccccc1)c1ccc(OCc3ccccc3)cc1n2Cc1ccccc1
- GI50 [4]: 1.51 µM
- TGI [4]: 2.84 µM
- GI50 [6]: 1.67 µM
- TGI [6]: 3.67 µM
- GI50 [7]: 0.336 µM
- TGI [7]: 2.09 µM
- GI50 [9]: 0.499 µM
- TGI [9]: 1.74 µM
- GI50 [13]: 2.01 µM
- TGI [13]: 4.64 µM
- GI50 [14]: 0.202 µM
- TGI [14]: 0.47 µM
- GI50 [31]: 5.78 µM
- TGI [31]: > 69.3 µM
- GI50 [34]: 0.984 µM
- TGI [34]: 2.21 µM
- GI50 [37]: 0.231 µM
- TGI [37]: 1.95 µM
- GI50 [41]: 0.515 µM
- TGI [41]: 1.86 µM
- GI50 [42]: 0.182 µM
- TGI [42]: 0.366 µM
- GI50 [43]: 1.11 µM
- TGI [43]: 2.36 µM
- GI50 [51]: 0.245 µM
- TGI [51]: 0.789 µM
- GI50 [52]: 0.286 µM
- TGI [52]: 1.21 µM

SMILES: COc1cc(-c2ccc(-c3ccc(C(=N)N)nc3)s2)cc(OC)c1OC
- GI50 [1]: 2.12 µM
- TGI [1]: 3.93 µM
- GI50 [2]: 4.9 µM
- TGI [2]: 18.2 µM
- GI50 [3]: 2.06 µM
- TGI [3]: 4.51 µM
- GI50 [4]: 1.73 µM
- TGI [4]: 3.14 µM
- GI50 [5]: 1.67 µM
- TGI [5]: 3.49 µM
- GI50 [6]: 1.59 µM
- TGI [6]: 3.19 µM
- GI50 [7]: 2.49 µM
- TGI [7]: 7.41 µM
- GI50 [8]: 1.6 µM
- TGI [8]: 3.26 µM
- GI50 [9]: 3.45 µM
- TGI [9]: 12.1 µM
- GI50 [10]: 5.19 µM
- TGI [10]: 18.2 µM
- GI50 [11]: 2 µM
- TGI [11]: 3.9 µM
- GI50 [12]: 1.47 µM
- TGI [12]: 2.87 µM
- GI50 [13]: 2.18 µM
- TGI [13]: 6.41 µM
- GI50 [14]: 1.87 µM
- TGI [14]: 4.21 µM
- GI50 [15]: 2.79 µM
- TGI [15]: 11.5 µM
- GI50 [16]: 1.91 µM
- TGI [16]: 8.37 µM
- GI50 [17]: 2.59 µM
- TGI [17]: 8.52 µM
- GI50 [18]: 1.37 µM
- TGI [18]: 5.68 µM
- GI50 [19]: 2.63 µM
- TGI [19]: 6.2 µM
- GI50 [20]: 1.39 µM
- TGI [20]: 4.46 µM
- GI50 [21]: 2.78 µM
- TGI [21]: 10.5 µM
- GI50 [22]: 1.87 µM
- TGI [22]: 3.48 µM
- GI50 [23]: 1.66 µM
- TGI [23]: 3.33 µM
- GI50 [24]: 1.53 µM
- TGI [24]: 3 µM
- GI50 [25]: 1.3 µM
- TGI [25]: 3.24 µM
- GI50 [26]: 1.85 µM
- TGI [26]: 4.2 µM
- GI50 [54]: 1.62 µM
- TGI [54]: 3.05 µM
- GI50 [27]: 2.53 µM
- TGI [27]: 6.9 µM
- GI50 [28]: 10.8 µM
- TGI [28]: 31.1 µM
- GI50 [29]: 6.4 µM
- TGI [29]: 22.6 µM
- GI50 [30]: 2.1 µM
- TGI [30]: 4.39 µM
- GI50 [55]: 1.8 µM
- TGI [55]: 4.14 µM
- GI50 [31]: 5.2 µM
- TGI [31]: 24.1 µM
- GI50 [32]: 2.6 µM
- TGI [32]: 6.35 µM
- GI50 [33]: 2.69 µM
- TGI [33]: 10.4 µM
- GI50 [34]: 2.1 µM
- TGI [34]: 5.38 µM
- GI50 [35]: 2.3 µM
- TGI [35]: 5.23 µM
- GI50 [36]: 3.11 µM
- TGI [36]: 12.7 µM
- GI50 [37]: 1.67 µM
- TGI [37]: 3.97 µM
- GI50 [56]: 2.19 µM
- TGI [56]: 4.83 µM
- GI50 [38]: 14.6 µM
- TGI [38]: 33.2 µM
- GI50 [39]: 1.61 µM
- TGI [39]: 3.01 µM
- GI50 [40]: 2.09 µM
- TGI [40]: 4.35 µM
- GI50 [41]: 1.62 µM
- TGI [41]: 3.18 µM
- GI50 [42]: 1.67 µM
- TGI [42]: 3.08 µM
- GI50 [43]: 13.1 µM
- TGI [43]: 26 µM
- GI50 [44]: 2.05 µM
- TGI [44]: 4.71 µM
- GI50 [45]: 4.73 µM
- TGI [45]: 16.3 µM
- GI50 [46]: 1.5 µM
- TGI [46]: 5.16 µM
- GI50 [47]: 2.48 µM
- GI50 [48]: 2.09 µM
- TGI [48]: 5.24 µM
- GI50 [49]: 3.19 µM
- TGI [49]: 9.35 µM
- GI50 [50]: 1.74 µM
- TGI [50]: 3.53 µM
- GI50 [51]: 2.15 µM
- TGI [51]: 4.07 µM
- GI50 [52]: 1.73 µM
- TGI [52]: 3.3 µM
- GI50 [53]: 1.88 µM
- TGI [53]: 3.4 µM
